Literature values as cited in publication PMC5014611 (Bioorganic & medicinal chemistry, 2016).

Molecular target: T1, human GIVA cPLA2 (Homo sapiens, UniProt P47712)
T1 sequence (P47712 1-749): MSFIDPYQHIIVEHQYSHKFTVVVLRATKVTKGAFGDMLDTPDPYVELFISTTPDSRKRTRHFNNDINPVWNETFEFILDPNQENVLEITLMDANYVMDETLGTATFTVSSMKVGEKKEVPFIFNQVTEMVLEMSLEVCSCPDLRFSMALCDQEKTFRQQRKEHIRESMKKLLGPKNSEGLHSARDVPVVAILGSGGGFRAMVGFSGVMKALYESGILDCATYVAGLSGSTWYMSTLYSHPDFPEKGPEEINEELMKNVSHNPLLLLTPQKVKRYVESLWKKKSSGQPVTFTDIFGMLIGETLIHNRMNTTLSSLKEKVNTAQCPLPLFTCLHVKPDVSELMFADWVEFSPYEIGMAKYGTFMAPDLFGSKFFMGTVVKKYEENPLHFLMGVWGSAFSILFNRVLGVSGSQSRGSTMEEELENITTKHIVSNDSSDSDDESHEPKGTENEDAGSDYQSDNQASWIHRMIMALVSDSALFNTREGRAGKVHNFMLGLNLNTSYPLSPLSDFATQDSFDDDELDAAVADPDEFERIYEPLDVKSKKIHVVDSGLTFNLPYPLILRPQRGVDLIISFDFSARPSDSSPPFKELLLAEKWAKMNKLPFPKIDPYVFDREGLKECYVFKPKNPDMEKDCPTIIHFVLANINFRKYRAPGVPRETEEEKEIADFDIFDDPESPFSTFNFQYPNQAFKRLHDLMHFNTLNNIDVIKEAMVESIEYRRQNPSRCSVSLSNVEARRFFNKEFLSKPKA
Conditions: commercially available inhibitor

CCCCC/C=C\C/C=C\C/C=C\C/C=C\CCCC(=O)C(F)(F)F [AATFMK, arachidonoyl trifluoromethyl ketone]
GIVA cPLA2 XI(50): 0.036 mole fraction
